Values of other authors as cited in patent publication US20050163858A1 (priority 2003, published 2005).

Legend:
[1] = biological target: dopamine D2 (Homo sapiens, UniProt P14416)
[2] = biological target: serotonin 5HT2A (Homo sapiens, UniProt P28223)
[3] = tested on: α1-adrenergic receptors
[4] = biological target: T1, serotonin 5HT1A (Homo sapiens, UniProt P08908)
T1 sequence (P08908 1-422): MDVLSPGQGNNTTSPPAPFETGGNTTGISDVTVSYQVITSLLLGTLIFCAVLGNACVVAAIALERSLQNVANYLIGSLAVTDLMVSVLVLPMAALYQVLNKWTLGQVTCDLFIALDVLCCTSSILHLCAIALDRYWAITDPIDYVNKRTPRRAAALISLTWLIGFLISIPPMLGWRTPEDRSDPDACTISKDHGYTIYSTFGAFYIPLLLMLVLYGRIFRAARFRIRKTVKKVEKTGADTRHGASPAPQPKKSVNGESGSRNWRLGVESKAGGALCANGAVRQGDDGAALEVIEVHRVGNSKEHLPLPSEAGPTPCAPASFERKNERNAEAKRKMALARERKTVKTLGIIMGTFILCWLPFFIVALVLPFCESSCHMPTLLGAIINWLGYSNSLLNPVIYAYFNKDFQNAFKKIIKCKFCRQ

[5] = biological target: T2, serotonin 5HT2C (Homo sapiens, UniProt P28335)
T2 sequence (P28335 33-458): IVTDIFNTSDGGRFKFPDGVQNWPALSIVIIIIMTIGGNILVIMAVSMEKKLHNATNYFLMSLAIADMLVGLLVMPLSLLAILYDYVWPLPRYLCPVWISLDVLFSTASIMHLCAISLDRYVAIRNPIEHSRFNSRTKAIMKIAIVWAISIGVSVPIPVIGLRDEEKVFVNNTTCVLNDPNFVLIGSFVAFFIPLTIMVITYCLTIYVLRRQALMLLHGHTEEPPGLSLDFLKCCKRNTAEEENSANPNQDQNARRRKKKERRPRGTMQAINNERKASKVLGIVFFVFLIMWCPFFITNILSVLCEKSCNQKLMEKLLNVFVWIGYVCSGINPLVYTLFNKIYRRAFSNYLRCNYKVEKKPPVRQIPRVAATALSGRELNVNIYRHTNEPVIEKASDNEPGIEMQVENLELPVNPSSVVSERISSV

[6] = tested on: serotonin 5HT1D

Measured: in vitro binding affinity

Chain of serotonin 5HT2A (P28223 whole entry): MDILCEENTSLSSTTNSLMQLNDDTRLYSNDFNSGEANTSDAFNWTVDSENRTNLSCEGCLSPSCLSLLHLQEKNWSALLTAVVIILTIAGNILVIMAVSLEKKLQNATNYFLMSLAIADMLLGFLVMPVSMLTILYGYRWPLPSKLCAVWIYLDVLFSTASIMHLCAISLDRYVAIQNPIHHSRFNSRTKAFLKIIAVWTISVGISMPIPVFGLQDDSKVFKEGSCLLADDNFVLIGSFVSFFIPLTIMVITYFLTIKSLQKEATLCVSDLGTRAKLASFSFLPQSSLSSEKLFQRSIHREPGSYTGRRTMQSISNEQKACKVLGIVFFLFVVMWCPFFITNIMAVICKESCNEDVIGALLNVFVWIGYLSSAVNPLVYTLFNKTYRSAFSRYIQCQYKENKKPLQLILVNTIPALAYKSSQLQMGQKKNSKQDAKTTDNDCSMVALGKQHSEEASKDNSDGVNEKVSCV
Chain of dopamine D2 (P14416 whole entry): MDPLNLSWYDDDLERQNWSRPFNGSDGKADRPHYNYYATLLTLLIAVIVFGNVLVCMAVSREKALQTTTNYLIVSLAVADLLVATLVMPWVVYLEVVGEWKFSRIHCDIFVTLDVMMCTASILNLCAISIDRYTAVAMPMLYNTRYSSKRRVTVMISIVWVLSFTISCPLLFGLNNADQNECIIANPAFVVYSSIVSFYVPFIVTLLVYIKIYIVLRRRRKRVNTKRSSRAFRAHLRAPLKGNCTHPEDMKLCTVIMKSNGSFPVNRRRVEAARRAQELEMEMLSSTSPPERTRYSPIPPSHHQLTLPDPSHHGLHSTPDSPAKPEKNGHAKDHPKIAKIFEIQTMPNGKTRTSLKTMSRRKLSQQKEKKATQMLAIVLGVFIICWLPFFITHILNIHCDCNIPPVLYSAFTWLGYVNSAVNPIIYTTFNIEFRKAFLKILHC

O=C1Cc2cc(CCN3CCN(c4nsc5ccccc45)CC3)c(Cl)cc2N1 [Ziprasidone, 5-[2-[4-(1,2-benzisothiazol-3-yl)-1-piperazinyl]ethyl]-6-chloro-1,3-dihydro-2H-indol-2-one]
high: all assays above
